Results reported in ChEMBL document CHEMBL1136975, “Synthesis and activity of quinolinylmethyl P1' alpha-sulfone piperidine hydroxamate inhibitors of TACE” (Bioorg Med Chem Lett, 2009).
pIC50: −log10 of the molar value.

What was measured:
[1] = species: Homo sapiens; experiment: Selectivity ratio of IC50 for human recombinant MMP13 catalytic domain to IC50 for human TACE catalytic domain
[2] = species: Homo sapiens; experiment: Selectivity ratio of IC50 for human recombinant MMP2 catalytic domain to IC50 for human TACE catalytic domain
[3] = system: RAW264.7; experiment: Inhibition of LPS-induced TNFalpha production in mouse RAW264.7 cells preincubated for 1 hrs before LPS challenge measured after 4 hrs by ELISA; assay type: functional, cell-based
[4] = molecular target: Collagenase 3 (Homo sapiens, UniProt P45452); experiment: inhibition of human recombinant MMP13 catalytic domain
[5] = molecular target: Disintegrin and metalloproteinase domain-containing protein 17 (Homo sapiens, UniProt P78536); experiment: Inhibition of human TACE catalytic domain expressed in CHO cells by FRET assay; assay type: cell-based
Sequence of Disintegrin and metalloproteinase domain-containing protein 17 (P78536 whole entry, the tested form may be a part): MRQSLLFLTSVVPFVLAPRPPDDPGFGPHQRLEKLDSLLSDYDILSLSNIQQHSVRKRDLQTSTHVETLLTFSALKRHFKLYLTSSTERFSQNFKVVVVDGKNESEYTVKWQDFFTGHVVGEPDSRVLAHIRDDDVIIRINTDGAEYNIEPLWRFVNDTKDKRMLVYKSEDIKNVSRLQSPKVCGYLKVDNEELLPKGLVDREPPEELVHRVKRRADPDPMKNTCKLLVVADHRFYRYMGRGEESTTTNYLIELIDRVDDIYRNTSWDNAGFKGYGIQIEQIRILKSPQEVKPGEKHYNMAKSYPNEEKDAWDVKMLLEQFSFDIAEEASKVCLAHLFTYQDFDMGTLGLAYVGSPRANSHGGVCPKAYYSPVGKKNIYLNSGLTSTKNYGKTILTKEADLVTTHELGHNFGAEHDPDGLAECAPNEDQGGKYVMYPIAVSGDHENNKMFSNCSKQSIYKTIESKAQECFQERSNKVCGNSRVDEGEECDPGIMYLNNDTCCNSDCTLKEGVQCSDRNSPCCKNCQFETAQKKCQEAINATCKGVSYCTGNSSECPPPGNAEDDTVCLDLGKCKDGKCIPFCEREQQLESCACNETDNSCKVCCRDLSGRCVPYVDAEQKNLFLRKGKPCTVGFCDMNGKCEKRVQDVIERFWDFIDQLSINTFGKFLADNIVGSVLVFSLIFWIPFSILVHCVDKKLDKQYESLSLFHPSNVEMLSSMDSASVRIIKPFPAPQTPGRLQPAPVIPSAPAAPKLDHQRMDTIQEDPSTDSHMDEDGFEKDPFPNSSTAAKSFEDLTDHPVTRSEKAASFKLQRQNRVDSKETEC

[6] = system: Blood; experiment: Inhibition of LPS-induced TNFalpha production in human whole blood preincubated for 1 hrs before LPS challenge measured after 4 hrs by ELISA; assay type: functional, tissue-based
[7] = molecular target: 72 kDa type IV collagenase (Homo sapiens, UniProt P08253); experiment: inhibition of human recombinant MMP2 catalytic domain
Sequence of 72 kDa type IV collagenase (P08253 whole entry, the tested form may be a part): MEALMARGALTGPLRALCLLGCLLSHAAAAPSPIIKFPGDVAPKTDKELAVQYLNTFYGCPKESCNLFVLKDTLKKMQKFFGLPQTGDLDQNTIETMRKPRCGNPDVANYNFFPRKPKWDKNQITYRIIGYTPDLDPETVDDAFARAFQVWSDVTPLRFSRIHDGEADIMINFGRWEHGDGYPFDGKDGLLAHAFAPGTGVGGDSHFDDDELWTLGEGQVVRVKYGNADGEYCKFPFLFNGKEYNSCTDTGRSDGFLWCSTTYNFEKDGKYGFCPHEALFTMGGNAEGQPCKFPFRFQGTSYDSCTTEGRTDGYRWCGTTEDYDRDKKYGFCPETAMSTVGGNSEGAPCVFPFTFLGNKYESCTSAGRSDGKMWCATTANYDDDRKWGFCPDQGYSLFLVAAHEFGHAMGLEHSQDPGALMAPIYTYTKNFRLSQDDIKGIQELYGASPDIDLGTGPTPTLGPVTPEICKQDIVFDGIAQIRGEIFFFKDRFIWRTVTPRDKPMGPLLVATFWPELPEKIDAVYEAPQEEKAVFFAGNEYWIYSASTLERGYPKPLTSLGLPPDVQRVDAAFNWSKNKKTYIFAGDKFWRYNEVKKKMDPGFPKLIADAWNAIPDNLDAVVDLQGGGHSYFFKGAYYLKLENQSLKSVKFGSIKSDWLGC

[8] = Selectivity for TACE over MMP13
[9] = molecular target: Matrix metalloproteinase-9 (Homo sapiens, UniProt P14780); experiment: inhibition of human recombinant MMP9 catalytic domain
Sequence of Matrix metalloproteinase-9 (P14780 whole entry, the tested form may be a part): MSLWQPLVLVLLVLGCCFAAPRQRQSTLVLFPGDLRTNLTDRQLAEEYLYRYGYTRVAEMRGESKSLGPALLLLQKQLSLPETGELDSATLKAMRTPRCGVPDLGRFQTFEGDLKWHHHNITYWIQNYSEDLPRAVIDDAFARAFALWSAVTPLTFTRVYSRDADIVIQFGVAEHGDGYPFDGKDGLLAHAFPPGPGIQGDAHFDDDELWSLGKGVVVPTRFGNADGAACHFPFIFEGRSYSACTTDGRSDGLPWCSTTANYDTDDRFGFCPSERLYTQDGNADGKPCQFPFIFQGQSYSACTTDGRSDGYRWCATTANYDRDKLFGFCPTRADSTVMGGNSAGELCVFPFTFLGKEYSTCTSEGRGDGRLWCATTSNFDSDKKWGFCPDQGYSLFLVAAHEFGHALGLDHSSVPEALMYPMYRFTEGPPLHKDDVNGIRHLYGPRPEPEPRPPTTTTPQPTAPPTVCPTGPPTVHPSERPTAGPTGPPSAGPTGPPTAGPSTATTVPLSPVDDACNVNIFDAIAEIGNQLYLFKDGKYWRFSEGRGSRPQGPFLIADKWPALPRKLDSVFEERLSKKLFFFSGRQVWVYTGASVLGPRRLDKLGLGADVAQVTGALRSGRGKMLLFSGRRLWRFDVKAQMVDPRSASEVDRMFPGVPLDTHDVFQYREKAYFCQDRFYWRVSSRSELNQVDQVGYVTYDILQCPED

[10] = Selectivity for TACE over MMP2
[11] = Selectivity for TACE over MMP14
[12] = Selectivity for TACE over MMP9
[13] = Selectivity for TACE over MMP1

| Ratio IC50 [1] | Ratio IC50 [2] | pIC50 [3] | pIC50 [4] | pIC50 [5] | pIC50 [6] | pIC50 [7] | Selectivity ratio [8] | pIC50 [9] | Selectivity ratio [10] | Selectivity ratio [11] | Selectivity ratio [12] | Selectivity ratio [13] | SMILES |
| --- | --- | --- | --- | --- | --- | --- | --- | --- | --- | --- | --- | --- | --- |
| < 10 |  |  |  |  |  |  |  |  |  |  |  |  | CC#CCOc1ccc(S(=O)(=O)C2(C(=O)NO)CCN(C(=O)OC(C)(C)C)CC2)cc1 |
| > 1000 | > 1000 |  | 5.72 | 9.00 |  | 5.80 |  |  |  |  |  |  | CC#CCOc1ccc(S(=O)(=O)CC2(C(=O)NO)CCNCC2)cc1 |
| < 10 |  |  |  |  |  |  |  |  |  |  |  |  | CC#CCOc1ccc(S(=O)(=O)C2(C(=O)NO)CCN(C(=O)c3ccccc3)CC2)cc1 |
|  |  | 6.21 |  |  | 4.85 |  |  |  |  |  |  |  | CC#CCOc1ccc(S(=O)(=O)CC2(C(=O)NO)CCN(C(=O)OC(C)(C)C)CC2)cc1 |
| > 90 | > 90 | < 6.00 | 6.03 | 8.00 | 4.85 | 5.67 |  |  |  |  |  |  | Cc1cc(COc2ccc(S(=O)(=O)C3(C(=O)NO)CCN(S(=O)(=O)C(C)C)CC3)cc2)c2ccccc2n1 |
| > 90 | > 90 | < 6.00 | 5.95 | > 9.00 | < 4.30 | 5.57 |  |  |  |  |  |  | Cc1cc(COc2ccc(S(=O)(=O)C3(C(=O)NO)CCN(C(=O)OC(C)(C)C)CC3)cc2)c2ccccc2n1 |
|  |  | < 6.00 | 7.10 | 7.19 | < 4.30 | 6.84 |  |  |  |  |  |  | Cc1cc(COc2ccc(S(=O)(=O)C3(C(=O)NO)CCN(Cc4ccc(Cl)c(Cl)c4)CC3)cc2)c2ccccc2n1 |
| > 90 | > 90 | < 6.00 | 6.38 | 8.70 | 4.85 | 5.91 |  |  |  |  |  |  | Cc1cc(COc2ccc(S(=O)(=O)C3(C(=O)NO)CCN(C(=O)C(C)C)CC3)cc2)c2ccccc2n1 |
|  |  | 6.31 |  | 8.70 | 5.06 |  | > 75 |  | > 75 | > 75 | > 75 | > 75 | CC#CCOc1ccc(S(=O)(=O)CC2(C(=O)NO)CCN(C(C)=O)CC2)cc1 |
| > 90 | > 90 | 6.90 | 5.84 | 7.96 | 5.62 | 4.82 |  |  |  |  |  |  | Cc1cc(COc2ccc(S(=O)(=O)C3(C(=O)NO)CCN(C)CC3)cc2)c2ccccc2n1 |
| > 90 | > 90 | 7.17 | 6.36 | 8.70 | 5.89 | 5.85 |  | < 4.92 |  |  |  |  | Cc1cc(COc2ccc(S(=O)(=O)C3(C(=O)NO)CCN(C=O)CC3)cc2)c2ccccc2n1 |

The next lines start with the molecule.

| SMILES | Ratio IC50 [1] | Ratio IC50 [2] | pIC50 [3] | pIC50 [4] | pIC50 [5] | pIC50 [6] | pIC50 [7] | Selectivity ratio [8] | pIC50 [9] | Selectivity ratio [10] | Selectivity ratio [11] | Selectivity ratio [12] | Selectivity ratio [13] |
| --- | --- | --- | --- | --- | --- | --- | --- | --- | --- | --- | --- | --- | --- |
| CC#CCOc1ccc(S(=O)(=O)C2(C(=O)NO)CCNCC2)cc1 | < 10 |  |  |  |  |  |  |  |  |  |  |  |  |
| CC(=O)N1CCC(C(=O)NO)(S(=O)(=O)c2ccc(OCc3cc(C)nc4ccccc34)cc2)CC1 | > 90 | > 90 | 6.41 | 5.87 | 9.00 | 5.82 | 5.16 |  |  |  |  |  |  |
| Cc1cc(COc2ccc(S(=O)(=O)C3(C(=O)NO)CCN(Cc4ccncc4)CC3)cc2)c2ccccc2n1 |  |  | 6.42 | 6.58 | 8.05 | 4.96 | 6.07 |  |  |  |  |  |  |
| CC#CCOc1ccc(S(=O)(=O)C2(C(=O)NO)CCN(C(C)=O)CC2)cc1 | < 10 |  |  |  |  |  |  | < 5 |  |  |  |  |  |
| Cc1cc(COc2ccc(S(=O)(=O)C3(C(=O)NO)CCN(C(=O)c4ccccc4)CC3)cc2)c2ccccc2n1 | > 90 | > 90 | < 6.00 | 6.69 | 9.00 | 4.55 | 6.29 |  |  |  |  |  |  |
| CCNC(=O)N1CCC(C(=O)NO)(S(=O)(=O)c2ccc(OCc3cc(C)nc4ccccc34)cc2)CC1 | > 90 | > 90 | 6.62 | 6.08 | 8.70 | 5.60 | 5.44 |  |  |  |  |  |  |
| CC#CCOc1ccc(S(=O)(=O)CC2(C(=O)NO)CCN(C(=O)c3ccccc3)CC2)cc1 |  |  | 6.40 | 7.23 |  | 5.60 |  |  |  |  |  |  |  |
| Cc1cc(COc2ccc(S(=O)(=O)C3(C(=O)NO)CCNCC3)cc2)c2ccccc2n1 | > 90 | > 90 | 6.48 | 5.06 | 7.48 | 5.62 | < 4.82 |  | < 4.92 |  |  |  |  |
| Cc1cc(COc2ccc(S(=O)(=O)C3(C(=O)NO)CCN(C(=O)c4ccncc4)CC3)cc2)c2ccccc2n1 | > 90 | > 90 | 6.64 | 6.46 | 8.70 | 5.72 | 5.96 |  |  |  |  |  |  |
| CC#CCOc1ccc(S(=O)(=O)C2(C(=O)NO)CCN(Cc3ccc(Cl)c(Cl)c3)CC2)cc1 | < 10 |  |  | 7.14 | 6.83 |  |  |  |  |  |  |  |  |
| CCN(CC)C(=O)N1CCC(C(=O)NO)(S(=O)(=O)c2ccc(OCc3cc(C)nc4ccccc34)cc2)CC1 |  |  | < 6.00 | 7.24 | 8.52 | < 4.30 | 7.02 |  |  |  |  |  |  |
| Cc1cc(COc2ccc(S(=O)(=O)C3(C(=O)NO)CCN(S(C)(=O)=O)CC3)cc2)c2ccccc2n1 | > 90 | > 90 | 6.46 | 6.41 | 8.92 | 5.55 | 5.76 |  |  |  |  |  |  |
